Test results published in PMC6501587 (The Journal of neuroscience : the official journal of the …, 2009).
Changes are numbered by the printed parent chain. Read-outs that look alike come from different tables or passages of the source.

How the values were obtained:
[1] = biological target: T1, P2X2aR (Rattus norvegicus, UniProt P49653); type: cell-based; conditions: for effect on the ATP-gated current: 10 μM metal pre-applied 1 min and co-applied with 30 μM ATP; for washout period sufficient to restore normal response: after 10 μM metal
T1 sequence (P49653 1-472): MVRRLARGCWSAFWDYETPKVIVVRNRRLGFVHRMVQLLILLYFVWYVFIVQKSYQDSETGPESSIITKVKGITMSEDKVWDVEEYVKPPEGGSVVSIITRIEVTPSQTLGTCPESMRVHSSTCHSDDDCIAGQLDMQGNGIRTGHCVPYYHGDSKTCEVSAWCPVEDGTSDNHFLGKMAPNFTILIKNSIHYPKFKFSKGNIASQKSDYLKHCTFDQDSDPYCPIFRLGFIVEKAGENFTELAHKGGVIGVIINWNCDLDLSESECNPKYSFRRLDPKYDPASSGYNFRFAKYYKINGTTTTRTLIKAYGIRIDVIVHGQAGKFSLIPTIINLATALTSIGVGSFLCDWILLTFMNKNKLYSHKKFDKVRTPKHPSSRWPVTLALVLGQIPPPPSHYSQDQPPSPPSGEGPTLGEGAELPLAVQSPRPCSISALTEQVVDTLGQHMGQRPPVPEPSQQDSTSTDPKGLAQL

[2] = biological target: T2, P2X4R (Rattus norvegicus, UniProt P51577); type: cell-based; conditions: oocytes; for effect on ATP-induced currents: 10 μM metal pre-applied 1 min and co-applied with 10 μM ATP
T2 sequence (P51577 1-388): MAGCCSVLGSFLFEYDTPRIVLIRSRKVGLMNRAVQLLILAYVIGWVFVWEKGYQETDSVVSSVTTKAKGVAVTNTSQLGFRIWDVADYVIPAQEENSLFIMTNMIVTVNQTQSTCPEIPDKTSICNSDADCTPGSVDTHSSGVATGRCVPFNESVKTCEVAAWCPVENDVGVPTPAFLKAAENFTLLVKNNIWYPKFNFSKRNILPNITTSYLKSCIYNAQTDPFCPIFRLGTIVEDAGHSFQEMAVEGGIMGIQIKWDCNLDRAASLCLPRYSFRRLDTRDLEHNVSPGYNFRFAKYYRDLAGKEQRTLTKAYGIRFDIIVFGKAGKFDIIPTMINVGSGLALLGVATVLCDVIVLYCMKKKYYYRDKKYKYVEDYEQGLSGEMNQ

[3] = biological target: T3, P2X2bR (Rattus norvegicus, UniProt P49653, DEL370-438); type: cell-based; conditions: oocytes
T3 sequence (P49653 with tags, fused parts or gaps DEL370-438): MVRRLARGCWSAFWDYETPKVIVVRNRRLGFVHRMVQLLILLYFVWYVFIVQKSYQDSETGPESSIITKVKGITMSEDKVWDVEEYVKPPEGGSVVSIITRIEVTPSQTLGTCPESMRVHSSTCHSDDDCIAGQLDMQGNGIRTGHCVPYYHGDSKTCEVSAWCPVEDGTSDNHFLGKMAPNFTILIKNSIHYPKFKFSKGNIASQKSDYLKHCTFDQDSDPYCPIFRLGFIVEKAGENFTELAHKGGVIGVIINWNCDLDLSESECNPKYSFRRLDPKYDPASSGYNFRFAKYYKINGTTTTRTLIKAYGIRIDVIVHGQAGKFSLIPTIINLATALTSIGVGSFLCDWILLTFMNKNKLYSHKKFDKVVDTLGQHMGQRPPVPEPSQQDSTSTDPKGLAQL

[4] = biological target: T1, P2X2aR; experiment: ATP-evoked currents, whole-cell patch clamp, HEK293 cells expressing P2X2aR; type: cell-based
[5] = biological target: T3, P2X2bR; type: cell-based; conditions: HEK293 cells
[6] = system: P2X2R; conditions: after application; ref Mason et al. (2004); cited from earlier work
[7] = biological target: T4, P2X2a-C430A (Rattus norvegicus, UniProt P49653, C430A); type: cell-based; conditions: oocytes; for potentiation compared to wild type P2X2aR: zinc or copper
T4 sequence (P49653 1-472 C430A): T1 sequence (P49653 1-472) with C430A

[8] = biological target: T5, P2X2a-C430S (Rattus norvegicus, UniProt P49653, C430S); type: cell-based; conditions: oocytes; for potentiation compared to wild type P2X2aR: copper or zinc
T5 sequence (P49653 1-472 C430S): T1 sequence (P49653 1-472) with C430S

[9] = system: P2X4/2a chimera; type: cell-based, rat; conditions: oocytes; for effect on deactivation constant: copper or zinc
[10] = system: P2X4/2b chimera; type: cell-based, rat; conditions: oocytes
[11] = biological target: T5, P2X2a-C430S; type: cell-based; conditions: HEK293 cells
[12] = saturating concentration of ATP

## O[C@@H](CS)[C@@H](O)CS (racemic) [DTT, dithiothreitrol]
[1]; 1 mM DTT alone, oocytes
  effect on ATP-evoked currents: did not modify the ATP-evoked currents
[1]; DTT co-applied with H2O2, oocytes
  effect of co-application with H2O2: abolished the effect of H2O2
[2]; DTT alone
  effect on receptor activity: did not modify the receptor activity
[2]; DTT co-applied with H2O2
  effect of co-application with H2O2: the inhibition was completely obliterated

## CO/C(=C/C(N)=O)[C@H](C)[C@H](/C=C/c1csc(-c2csc([C@@H](C)/C=C/C=C/C(C)C)n2)n1)OC [myxothiazol]
[1]; higher concentrations, data not shown, expression system not given
  effect of higher concentrations on receptor activity (biphasic): inhibited the receptor activity
[1]; myxothiazol applied 10 min prior to ATP, oocytes
  maximal potentiation of ATP-evoked currents: 1.95 ± 0.18 fold
[3]
  sensitivity to myxothiazol: insensitive
[4]; 100 nM myxothiazol, 3 μM ATP
  increase of ATP-evoked currents: 1.95 ± 0.14 fold
[5]
  sensitivity to myxothiazol: insensitive
[6]
  effect on P2X2R-mediated currents: transient increase followed by sustained inhibition

## [Cl][Cu][Cl] [copper]
[1]
  increase of 10–90% deactivation time: 2 fold
[1]; oocytes
  effect on the ATP-gated current: potentiated
  washout period sufficient to restore normal response: ≤ 10 min
[7]
  potentiation compared to wild type P2X2aR: not significantly altered
[8]
  potentiation compared to wild type P2X2aR: not changed
[9]; 10 μM copper, 1 μM ATP
  inhibition of ATP-evoked currents: 50%
[9]
  effect on deactivation constant: did not modify significantly
[9]; copper, not shown
  decrease of maximal ATP response: 40%
[10]; 10 μM copper, 1 μM ATP
  inhibition of ATP-evoked currents: 55 ± 12%
[2]
  effect on ATP-induced currents: inhibited
[4]; 10 μM metal, ATP ~EC15
  increase of ATP-evoked currents: 4.5 ± 0.5 fold
[5]; 10 μM metal, ATP ~EC15
  increase of ATP-gated currents: 5.7 ± 1.5 fold
[11]; 10 μM metal, ATP ~EC15
  increase of ATP-gated currents: 4.2 ± 0.9 fold

## C=C(C)[C@H]1Cc2c(ccc3c2O[C@@H]2COc4cc(OC)c(OC)cc4[C@@H]2C3=O)O1 [rotenone]
[1]; 600 nM rotenone, 10 min prior to ATP, oocytes
  fold-increase of the ATP-evoked currents: 1.75 ± 0.38 fold
[3]; 600 nM
  potentiation by rotenone: not observed
[4]; 600 nM rotenone
  fold-increase of the ATP-evoked currents: 1.52 ± 0.08 fold
[5]; 600 nM
  potentiation by rotenone: not observed
[6]
  effect on P2X2R-mediated currents: transient increase followed by sustained inhibition

## Nc1ncnc2c1ncn2[C@@H]1O[C@H](COP(=O)([O-])OP(=O)([O-])OP(=O)([O-])O)[C@@H](O)[C@H]1O.[Na+].[Na+].[Na+] [ATP, ATP tri sodium salt]
[1]; ATP alone (before mercury), oocytes
  10–90% deactivation time: 4.4 ± 0.2 s
[1]; ATP alone, Xenopus laevis oocytes, Hill equation
  EC50: 33.3 ± 2.5 µM
[1]; ATP, oocytes, Hill equation
  nH: 1.4 ± 0.1
[1]; saturating concentration of ATP, oocytes
  Imax: 12.1 ± 2.9 μA
[3]; ATP alone, Hill equation
  EC50: 59.2 ± 9.1 µM
[3]; ATP
  nH: 1.4 ± 0.3
[3]; [12]
  Imax: 15.6 ± 1.9 μA
[7]; ATP alone, Hill equation
  EC50: 293 ± 70 µM
[7]; ATP
  nH: 1.2 ± 0.3
[7]
  reduction of ATP potency compared to the wild type: 10 fold
[7]; [12]
  Imax: 1.2 ± 0.5 μA
[8]; ATP alone, Hill equation
  EC50: 45 ± 6.3 µM
[8]; ATP
  nH: 1.4 ± 0.3
[8]; [12]
  Imax: 11.8 ± 0.8 μA
[9]; ATP alone (before mercury)
  10–90% deactivation time: 12.6 ± 1.1 s
[9]; ATP alone, Hill equation
  EC50: 4.8 ± 0.6 µM
[9]; ATP
  nH: 0.9 ± 0.2
[9]; [12]
  Imax: 6.7 ± 1.5 μA
[10]; ATP alone, Hill equation
  EC50: 4.6 ± 2.4 µM
[10]; ATP
  nH: 1.2 ± 0.1
[10]; [12]
  Imax: 14.0 ± 1.5 μA
[2]; ATP alone, Hill equation
  EC50: 11 ± 2.6 µM
[2]; [12]
  Imax: 4.7 ± 0.6 μA
[4]; ATP
  nH: 1.2 ± 0.2
[4]; ATP alone, Hill equation
  EC50: 10.2 ± 1.3 µM
[4]; [12]
  Imax: 4.6 ± 0.3 nA
[5]; ATP alone, Hill equation
  EC50: 7.6 ± 1.3 µM
[5]; ATP
  nH: 1.1 ± 0.3
[5]; [12]
  Imax: 4.2 ± 0.9 nA
[11]; ATP alone, Hill equation
  EC50: 18.1 ± 3.3 µM
[11]; ATP
  nH: 1.5 ± 0.6
[11]; [12]
  Imax: 5.4 ± 0.9 nA

## [Cl-].[Cl-].[Zn+2] [zinc]
[1]; oocytes
  effect on the ATP-gated current: potentiated
  washout period sufficient to restore normal response: ≤ 10 min
[7]
  potentiation compared to wild type P2X2aR: not significantly altered
[8]
  potentiation compared to wild type P2X2aR: not changed
[9]; 10 μM metal, 1 μM ATP
  potentiation of 1 μM ATP-induced current: 2.6 ± 0.3 fold
[9]
  effect on deactivation constant: did not modify significantly
[10]; 10 μM zinc, 1 μM ATP
  potentiation of receptor activity: 2.6 ± 0.3 fold
[2]
  effect on ATP-induced currents: potentiated

## CSS(C)(=O)=O [MMTS, Methylmethane-thiosulfonate]
[1]
  effect on H2O2 potentiation: abolished
[1]; MMTS alone, oocytes, data not shown
  current increase by agent alone (transient and reversible): 20%
[1]; MMTS treatment, oocytes
  effect on mercury-induced potentiation: abolished
